The text below walks through data of US8445476B2, “Carbacephem β-lactam antibiotics” (Achaogen, Inc., priority 2007, dated 2013).

Converted amounts (≈) assume the structure as drawn. Read-outs that look alike come from different tables or passages of the source.

For data set [1], the system named is S. aureus ASAU002 (MRSA ATCC 33591). Description: MIC assay, S. aureus ASAU002. It is filed as cell-based. The note with it: Staphylococcus aureus. As for the experimental part: The in vitro MIC for bacterial isolates may be obtained in the following manner: a test compound is incorporated into a series of two-fold dilutions in cation adjusted Mueller-Hinton broth (CAMHB). Different bacterial strains diluted to provide a uniform inoculum are added to the CAMHB containing test compounds. A well without test compound is included for each strain as a growth control. […] The procedures used in these experiments are generally those standardized by the Clinical and Laboratory Standards Institute (CLSI), as set forth in the CLSI publication entitled “M7-A7. Methods for dilution antimicrobial susceptibility tests for bacteria that grow aerobically; approved standard-seventh edition.” (2006), which is incorporated by reference as if fully set forth herein. The following exemplifies such a procedure although it is to be understood that modifications of the procedure may be implemented as required.
Two-fold dilutions of the test compounds are prepared in CAMHB at 2× the concentration range to be tested if the compounds are soluble in aqueous solution. Alternately, dimethylsulfoxide (DMSO) is used to prepare two-fold dilutions at 10× the concentration range to be tested. Reference drugs such as cefotaxime, vancomycin or imipenem are used as positive controls. A few isolated colonies are retrieved from a pure culture prepared on an agar plate and suspended in PBS until the turbidity of the suspension matches a 0.5 McFarland standard which is equal to approximately 10^8 sCFU/mL. This solution is further diluted in CAMHB to 10^6CFU/mL if compounds are diluted in CAMHB and 5×10^5 CFU/mL if compounds are diluted in DMSO. The CAMHB plates containing the compound dilutions are combined in equal volumes with the higher density inoculum, or 10 μL of the DMSO dilutions are added to the lower density inoculum. When S. aureus is the organism being tested and the compound is oxacillin, a beta-lactam or a carbacephem compound of the present invention, 2% NaCl is added to the growth media. The plates are then incubated for 16-20 hours at 35° C. The plates are then observed to determine which concentration of the test compound is the MIC.

Data set [2] has as its system S. aureus ASAU1028 (CA-MRSA, USA400). Description: MIC assay, S. aureus ASAU1028. The data set is classed as cell-based. The note with it: Staphylococcus aureus, read-out: MIC ASAU 1028.
The test system of data set [3] is S. aureus ASAU1043 (MRSA, CIP, ERY, CLI, GEN resistant). Description: MIC assay, S. aureus ASAU1043. The data set is classed as cell-based. Conditions: Staphylococcus aureus, read-out: MIC ASAU 1043.
Data set [4] concerns S. aureus ASAU001 (Susceptible Organism ATCC 29213). Description: MIC assay, S. aureus ASAU001. The data set is classed as cell-based. The note with it: Staphylococcus aureus, ATCC29213, read-out: MIC ASAU 001.
In data set [5] the test system is S. aureus ASAU1029 (CA-MRSA, USA300). Put plainly: MIC assay, S. aureus ASAU1029. The data set is classed as cell-based. Conditions: Staphylococcus aureus, read-out: MIC ASAU 1029.
For data set [6], the system named is S. aureus ASAU1033 (MRSA, CIP, ERY, CLIN, TET, GEN resistant). Put plainly: MIC assay, S. aureus ASAU1033. The data set is classed as cell-based. The note with it: Staphylococcus aureus, read-out: MIC ASAU 1033.
For data set [7], the system named is Staphylococcus aureus Methicillin Resistance (MRSA) (ATCC 33591). Description: Neutropenic mouse infected thigh model. It is filed as in vivo, mice. The method, then:
Groups of 6 male specific-pathogen-free CD-1 mice weighing 22±2 g are used. Animals are rendered immunosuppressedion by two intraperitoneal injections of cyclophosphamide, the first at 150 mg/kg 4 days before infection (day −4) and the second at 100 mg/kg 1 day before infection (day −1). On day 0, animals are inoculated intramuscularly (0.1 ml/thigh) with 1×10^5 CFU/mouse of Staphylococcus aureus Methicillin Resistance (MRSA) (ATCC 33591) into right thigh. Vehicle and/or test substances are then administered (IV, SC, or PO) 2 hours later. At 26 hours after inoculation, muscle of the right thigh is harvested from each of the survival test animals. The removed muscle tissues are then homogenized in 3 to 4 ml of PBS, pH 7.4 with a ceramic mortar. Homogenates of 0.1 ml are used for serial 10-fold dilutions and plated on Muller Hinton Broth in 1.5% Bacto® Agar for CFU determination. Decrease of the CFU/g muscle of right thigh in 99 percent or more (≧99) of the animals indicates significant activity. See, e.g., Andes, D. et al., Antimicrobial Agents and Chemotherapy, 46: 1665-1670 (2002); and Griffith, D. C., et al., Antimicrobial Agents and Chemotherapy, 50: 1628-1632 (2006).
Test compounds were dosed s.c. at 60, 120 or 240 mg/kg/day, except vancomycin at a single dose level of 220 mg/kg/day.

The nature of data set [8]: Pharmacokinetic study in rats. It is filed as in vivo. The note with it: male, Sprague-Dawley, rat. As for the experimental part: Male cannulated Sprague-Dawley rats (˜250 g) are administered test compounds by IV, PO, or SC routes. All animals are weighed prior to dose administration. Blood (˜0.25 mL) is collected by cannula transferred into microtainer tubes containing EDTA at time points 2 (I.V. animals only), 5, 15, 30, 60, 120, 240, 360, 480, 1440 minutes. After collection, the blood samples are centrifuged at approximately 1000×g at 2-8° C. for approximately 10 minutes. Each plasma specimen is collected, aliquoted into cluster tubes, and stored at ˜−20° C. until analysis.

For data set [9], the system named is S. aureus ASAU002 (MRSA ATCC 33591). Conditions: previously reported (Craig et al.); cited from earlier work.
Data set [10] concerns Staphylococcus aureus Methicillin Resistance (MRSA) (ATCC 33591). The note with it: 160 mg/kg/day, dosed 4 times per day, previously reported (Craig et al.); cited from earlier work.
For data set [11] the following is noted: previously reported (Griffith et al.); cited from earlier work.
[12] abbreviates: S. aureus ASAU002, MRSA ATCC 33591, read-out: MIC ASAU 002.

The MIC is the smallest concentration in the dilution series that meets the test's criterion for growth inhibition. The half-life is how long it takes for the measured level to halve. Lower therefore signals rapid decline. Regarding `NCCSCc1cnccc1SC1=C(C(=O)O)N2C(=O)[C@@H](NC(=O)/C(=N\O)c3nsc(N)n3)[C@H]2CC1` [48/1, (6R,7S,Z)-7-(2-(5-amino-1,2,4-thiadiazol-3-yl)-2-(hydroxyimino)acetamido)-3-(3-((2-aminoethylthio)methyl)pyridin-4-ylthio)-8-oxo-1-aza-bicyclo[4.2.0]oct-2-ene-2-carboxylic Acid], the MIC was no more than 1 µg/mL in data set [1] (setting [12]); 1 µg/mL (≈ 1.82 µM) in data set [1] (strain used in the infected thigh model (ATCC 33591), read-out: MIC); no more than 1 µg/mL in data set [2]; 1 to 8 µg/mL (≈ 1.82 to 14.5 µM) in data set [3]; no more than 1 µg/mL in data set [4]; no more than 1 µg/mL in [5]. Moreover, the MIC in [6] fell in the range of 1 to 8 µg/mL (≈ 1.82 to 14.5 µM). Besides, in data set [7] (s.c., lowest dose of 60 mg/kg/day (TID 20 mg/kg/8 h)), the “log kill (CFU) in thigh” value turned out to be 1 log kill. Besides, in [7] (vancomycin 220 mg/kg/day (BID 110 mg/kg/12 h)), the “efficacy compared with vancomycin” value is “more effective than vancomycin”. For the same compound, the “time uncorrected plasma concentrations are above the MIC” value in data set [8] (in vivo, 10 mg/kg) came out at 2 h. The compound also showed a half-life in data set [8] (plasma, rats, 10 mg/kg IV) of 1.8 h. Also, the Vd in data set [8] (plasma, rats, 10 mg/kg IV, read-out: volume of distribution Vss) amounted to 1.08 L/kg.

In general, Vss refers to a proportionality between amount in the body and measured concentration, not a real space. On to `Nc1nnc(SC2=C(C(=O)O)N3C(=O)[C@@H](NC(=O)/C(=N\O)c4nc(N)sc4Cl)[C@H]3CC2)s1` [Comparative Compound 2], for which the MIC in data set [1] (setting [12]) is no more than 1 µg/mL; in data set [9] it was 1 µg/mL (≈ 1.93 µM); in [4], no more than 1 µg/mL. For the same compound, the “log kill in CFU count” value in [10] is reported as 3 log kill. Moreover, in [11], the T1/2 is 1.47 h. For the same compound, the distribution volume (Vss) in data set [11] is on record as 0.91 L/kg.
